In US20160030426A1, “HETEROARYL COMPOUNDS AND USES THEREOF” (CELGENE AVILOMICS RESEARCH, INC., priority 2013, published 2016):

Molecular target: T1, EGFR-WT (Homo sapiens, UniProt P00533)
T1 construct: purchased Invitrogen PV3872
Assay: Omnia assay for potency assessment against EGFR-WT
Type: biochemical
Conditions: 30 min pre-incubation at 27° C., read-out: EGFR Inhibition
Experimental: Omnia Assay Protocol for Potency Assessment Against BTK and EGFR
The mechanics of the assay platform are best described by the vendor (Invitrogen, Carlsbad, Calif.).
10× stocks of EGFR-WT (PV3872) from Invitrogen, 1.13×ATP (Invitrogen catalog number AS001A) and appropriate Tyr-Sox conjugated peptide substrates (Invitrogen catalog number KCZ1001) were prepared in 1× kinase reaction buffer consisting of 20 mM Tris, pH 7.5, 5 mM MgCl2, 1 mM EGTA, 5 mM β-glycerophosphate, 5% glycerol (10× stock, Invitrogen catalog number KB002A) and 0.2 mM DTT (Invitrogen catalog number DS001A). 5 μL of each enzyme were pre-incubated in a Corning (#3574) 384-well, white, non-binding surface microtiter plate (Corning, N.Y.) for 30 min. at 27° C. with a 0.5 μL volume of 50% DMSO and serially diluted compounds prepared in 50% DMSO. Kinase reactions were started with the addition of 45 μL of the ATP/Tyr-Sox peptide substrate mix and monitored every 30-90 seconds for 60 minutes at λex360/λem485 in a Synergy^4 plate reader from BioTek (Winooski, Vt.). […] Initial velocity (0 minutes to ˜30 minutes) from each reaction was determined from the slope of a plot of relative fluorescence units vs time (minutes) and then plotted against inhibitor concentration to estimate IC50 from log[Inhibitor] vs Response, Variable Slope model in GraphPad Prism from GraphPad Software (San Diego, Calif.).

T1 sequence (P00533 668-1210 limits assumed): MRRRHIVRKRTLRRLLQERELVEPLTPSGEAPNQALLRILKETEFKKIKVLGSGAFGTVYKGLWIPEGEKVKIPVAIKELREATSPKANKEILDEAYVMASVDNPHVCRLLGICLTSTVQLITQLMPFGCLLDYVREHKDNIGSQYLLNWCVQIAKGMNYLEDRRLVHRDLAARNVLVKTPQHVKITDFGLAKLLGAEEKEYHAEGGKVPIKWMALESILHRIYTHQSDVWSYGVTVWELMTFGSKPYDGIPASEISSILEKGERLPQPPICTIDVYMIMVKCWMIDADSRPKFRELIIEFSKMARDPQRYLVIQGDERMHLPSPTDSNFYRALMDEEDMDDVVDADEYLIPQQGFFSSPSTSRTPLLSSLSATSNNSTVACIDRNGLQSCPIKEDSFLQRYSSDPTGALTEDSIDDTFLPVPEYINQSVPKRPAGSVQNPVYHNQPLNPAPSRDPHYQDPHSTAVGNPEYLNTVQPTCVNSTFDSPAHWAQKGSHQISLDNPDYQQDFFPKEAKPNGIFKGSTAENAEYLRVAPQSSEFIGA

SMILES: [2H]C([2H])([2H])OC([2H])([2H])C([2H])([2H])Oc1ccc(Nc2ncc(F)c(Nc3cccc(NC(=O)C=C)c3)n2)cc1 [II-7]
- IC50: 10 to 100 nM
